Measurements taken from US7638540B2, “Benzofuran compound and medicinal composition containing the same” (The New Industry Research Organization, priority 2003, dated 2009).

| melting point [°C] | Compound |
| --- | --- |
| 219.5 to 222.8 | CCN(CC)C(=O)/C=C(\C)c1ccc2oc(C(=O)c3ccc(C#N)cc3)c(NC(=O)/C(C#N)=C(/C)O)c2c1 [Example 109, N-[2-(4-cyanobenzoyl)-5-((E)-2-diethylcarbamoyl-1-methylvinyl)benzofuran-3-yl]-2-cyano-3-hydroxy-(Z)-2-butenamide] |
| 167.6 to 168.7 | CC(=O)c1oc2ccc(/C(C)=C/C(=O)N3CCN(c4ccccc4)CC3)cc2c1NC(=O)/C(C#N)=C(/C)O [Example 95, N-{2-acetyl-5-[1-methyl-3-oxo-3-(4-phenylpiperazin-1-yl)-(E)-1-propenyl]benzofuran-3-yl}-2-cyano-3-hydroxy-(Z)-2-butenamide] |
| 185.4 to 186.6 | COc1cccc2cc(/C(Cl)=C/C=C/C(=O)N3CCOCC3)oc12 [Example 138, (2E,4Z)-5-chloro-5-(7-methoxybenzofuran-2-yl)-1-morpholin-4-ylpenta-2,4-dien-1-one] |
| 159.5 to 162 | CCOC(=O)c1oc2ccc(/C(C)=C/C(=O)N(CC)CC)cc2c1N [Example 15, Ethyl (E)-3-amino-5-(2-diethylcarbamoyl-1-methylvinyl)benzofurane-2-carboxylate] |
| 90 to 91.8 | COc1cccc2cc(C(C)NC(C)=O)oc12 (centres unmarked) [Example 191, N-[1-(7-methoxybenzofuran-2-yl)ethyl]acetamide] |
| 206.1 to 208.1 | CC(=O)c1oc2ccccc2c1NC(=O)/C(C#N)=C(/C)O [Example 66, (Z)-N-(2-acetylbenzofuran-3-yl)-2-cyano-3-hydroxy-2-butenamide] |
| 212 to 212.3 | COc1cc(C(=O)Nc2c(C(C)=O)oc3ccc(Br)cc23)cc(OC)c1OC [Example 210, N-(2-acetyl-5-bromobenzofuran-3-yl)-3,4,5-trimethoxybenzamide] |
| 247.5 to 249.5 | C/C=C/C(=O)Nc1c(C(=O)/C=C/N(C)C)oc2ccc(Br)cc12 [Example 177, (E)-2-butenoic acid [5-bromo-2-(3-dimethylamino-(E)-acryloyl)benzofuran-3-yl]amide] |
| 160.6 to 161.1 | COc1cccc2c(NC(=O)/C=C/c3ccccc3)c(C(C)=O)oc12 [Example 182, (E)-N-(2-acetyl-7-methoxybenzofuran-3-yl)-3-phenylacrylamide] |
| 170.3 to 174.1 | CCN(CC)C(=O)/C=C(\C)c1ccc2oc(C(C)=O)c(NC(=O)c3cnoc3C)c2c1 [Example 74, (E)-N-[2-acetyl-5-(2-diethylcarbamoyl-1-methylvinyl)benzofuran-3-yl]-5-methylisoxazole-4-carboxamide] |
| 120 to 125 | COc1ccc(NC(=O)/C=C(\C)c2cc3cccc(OC(C)c4ccccc4)c3o2)cc1 (centres unmarked) [Example 172, (E)-3-[7-(1-phenylethoxy)benzofuran-2-yl]-2-butenoic acid (4-methoxyphenyl)amide] |
| 261.5 to 262.8 | C/C(O)=C(\C#N)C(=O)Nc1c(C(=O)/C=C/c2ccccc2)oc2ccc(Br)cc12 [Example 174, 2-cyano-3-hydroxy-(Z)-2-butenoic acid [5-bromo-2-((E)-3-phenylacryloyl)benzofuran-3-yl]amide] |
| 219.6 to 220.3 | Cc1oncc1C(=O)Nc1c(C(=O)/C=C/c2ccccc2)oc2ccc(Br)cc12 [Example 173, (E)-5-methylisoxazole-4-carboxylic acid [5-bromo-2-(3-phenylacryloyl)benzofuran-3-yl]amide] |
| 98.9 to 101.2 | COc1cccc2cc(/C(Cl)=C/C=C/C#N)oc12 [Example 61, (2E,4Z)-5-chloro-5-(7-methoxybenzofuran-2-yl)penta-2,4-dienenitrile] |
| 186.2 to 188.3 | COc1cccc2c(NC(=O)CCl)c(C(C)=O)oc12 [Example 205, N-(2-acetyl-7-methoxybenzofuran-3-yl)-2-chloroacetamide] |
| 153.8 to 155.7 | C/C=C/C(=O)Nc1c(C(C)=O)oc2cc(OC)ccc12 [Example 116, (E)-N-(2-acetyl-6-methoxybenzofuran-3-yl)-2-butenamide] |
| 125.2 to 128.8 | Cc1oncc1C(=O)Nc1c(C(C)O)oc2ccc(Br)cc12 (centres unmarked) [Example 70, N-[5-bromo-2-(1-hydroxyethyl)benzofuran-3-yl]-5-methylisoxazole-4-carboxamide] |
| 240.2 to 242 | N#Cc1oc2ccc(Br)cc2c1NC(=O)/C=C/c1ccccc1 [Example 122, (E)-N-(5-bromo-2-cyanobenzofuran-3-yl)-3-phenylacrylamide] |
| 245.4 to 249.5 | N#CCC(=O)Nc1c(C(=O)c2ccc(Cl)cc2)oc2ccc(Br)cc12 [Example 197, N-[5-bromo-2-(4-chlorobenzoyl)benzofuran-3-yl]-2-cyanoacetamide] |
| 60.1 to 62 | CCN(CC)C(=O)/C=C(/C)c1oc2ccc(Br)cc2c1C [Example 153, (Z)-3-(5-bromo-3-methylbenzofuran-2-yl)-2-butenoic acid diethylamide] |
| 67 to 69.5 | CCOC(=O)CCCOc1cccc2cc(/C(Cl)=C/C=O)oc12 [Example 140, Ethyl 4-[2-(1-chloro-3-oxopropenyl)benzofuran-7-yloxy]-butyrate] |
| 216.8 to 218.7 | COc1ccc2oc(-c3csc(NC(=O)c4cnoc4C)n3)c(-c3ccc(Cl)cc3)c2c1 [Example 220, 5-methylisoxazole-4-carboxylic acid {4-[3-(4-chlorophenyl)-5-methoxybenzofuran-2-yl]thiazol-2-yl}amide] |
| 169.1 to 170.2 | COc1cccc2c(NC(=O)CCCl)c(C(C)=O)oc12 [Example 204, N-(2-acetyl-7-methoxybenzofuran-3-yl)-3-chloropropionamide] |
| 99.5 to 101 | CCOC(=O)/C=C(\C)c1ccc2oc(/C(Cl)=C/C=O)cc2c1 [Example 146, Ethyl 3-[2-(1-chloro-3-oxo-(Z)-propenyl)benzofuran-5-yl]-(E)-2-butenoate] |
| 132.1 to 136.5 | CC(=O)c1cc2c(/C(C)=C/C(=O)N3CCN(Cc4ccccc4)CC3)ccc(OC(c3ccccc3)c3ccccc3)c2o1 [Example 12, (E)-3-(2-acetyl-7-benzhydryloxybenzofuran-4-yl)-1-(4-benzylpiperazin-1-yl)-2-buten-1-one] |
| 169.3 to 170.2 | CCNS(=O)(=O)c1ccc(OCCCC(=O)O)c2oc(C(C)NC(=O)/C(C#N)=C(\C)O)cc12 (centres unmarked) [Example 129, (E)-4-{2-[1-(2-cyano-3-hydroxy-2-butenoylamino)ethyl]-4-ethylsulfamoylbenzofuran-7-yloxy}butyric acid] |
| 165.7 to 168 | C/C=C/C(=O)Nc1c(C(C)=O)oc2c(OC)cccc12 [Example 185, (E)-2-butenoic acid (2-acetyl-7-methoxybenzofuran-3-yl)amide] |
| 220 to 221.3 | COc1cccc2c(NC(=O)/C=C/c3ccccc3)c(Cl)oc12 [Example 181, (E)-N-(2-chloro-7-methoxybenzofuran-3-yl)-3-phenylacrylamide] |
| 91.3 to 93.2 | CCCCc1oc2ccccc2c1/C(Cl)=C/C=C/C(=O)Nc1ccc(OC)cc1 [Example 135, (2E,4Z)-5-(2-butylbenzofuran-3-yl)-5-chloropenta-2,4-dienoic acid (4-methoxyphenyl)amide] |
